From patent US8648092B2, “Imidazo[1,2-a]pyridine derivatives: preparation and pharmaceutical applications” (MEI Pharma, priority 2005, dated 2014)

Experiments:
[1] = system: acetylated histone H3 in Colo205 cells; experiment: Histone acetylation assay (immuno-blotting with acetylated histone H3 antibody); assay type: cell-based, human; details: 10 μM, 24 h, western blot
Description: Histone Acetylation Assay
A hallmark of histone deacetylase (HDAC) inhibition is the increase in the acetylation level of histones. Histone acetylation, including H3, H4 and H2A can be detected by immuno-blotting (western-blot). Colo205 cells, approximately 5×10^5 cells, were seeded in the previously described medium, cultivated for 24 h and subsequently treated with HDAC inhibitory agents and a positive control at 10 μM final concentration. After 24 h, cells were harvested and lysed according to the instruction from Sigma Mammalian Cell Lysis Kit. The protein concentration was quantified using BCA method (Sigma Pte Ltd). The protein lysate was separated using 4-12% bis-tris SDS-PAGE gel (Invitrogen Pte Ltd) and was transferred onto PVDF membrane (BioRad Pte Ltd). The membrane was probed using primary antibody specific for acetylated histone H3 (Upstate Pte Ltd). The detection antibody, goat anti rabbit antibody conjugated with HRP was used according to the manufacturing instruction (Pierce Pte Ltd). After removing the detection antibody from the membrane, an enhanced chemiluminescent substrate for detection of HRP (Pierce Pte Ltd) was added onto the membrane. After removing the substrate, the membrane was exposed to an X-ray film (Kodak) for 1 sec-20 mins. The X-ray film was developed using the X-ray film processor. The density of each band observed on the developed film could be qualitatively analysed using UVP Bioimaging software (UVP, Inc, Upland, Calif.). The values were then normalized against the density of actin in the corresponding samples to obtain the expression of the protein.
The results of immuno-blotting assay using acetylated histone H3 antibody are shown in Table 5 for representative compounds of this invention.

[2] = target: HDAC1 enzyme (recombinant GST-HDAC1) (Homo sapiens (Human), UniProt Q13547); experiment: In vitro HDAC assay for determination of IC50 values (BIOMOL fluorescent-based HDAC activity assay); assay type: biochemical; details: Flur de lys substrate, 2 h room temperature, read-out: IC50 (HDAC 1)
Procedure, shortened: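 Recombinant human GST-HDAC1, baculovirus-expressed in SF9 cells and glutathione-purified, tested with a fluorogenic deacetylase substrate; Fluor de Lys developer added for 10 min. Fluorescence at 360 nm excitation/460 nm emission; IC50 fitted from a concentration series.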

Colo205 cells = experiment: Cell-based proliferation assay for determination of GI50 values (CyQUANT); parameters: species or system human; details: Homo sapiens, COLO 205, 96 h treatment
Procedure, shortened: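 Colo205 cells in RPMI 1640 with 5% FBS, seeded 5000/well and grown 24 h at 37 °C. Exposure to compound lasted 96 h, with growth read by CyQUANT. GI50 = concentration giving 50% growth inhibition, from dose-response curves.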

Sequence of HDAC1 enzyme (recombinant GST-HDAC1) (Q13547 whole entry): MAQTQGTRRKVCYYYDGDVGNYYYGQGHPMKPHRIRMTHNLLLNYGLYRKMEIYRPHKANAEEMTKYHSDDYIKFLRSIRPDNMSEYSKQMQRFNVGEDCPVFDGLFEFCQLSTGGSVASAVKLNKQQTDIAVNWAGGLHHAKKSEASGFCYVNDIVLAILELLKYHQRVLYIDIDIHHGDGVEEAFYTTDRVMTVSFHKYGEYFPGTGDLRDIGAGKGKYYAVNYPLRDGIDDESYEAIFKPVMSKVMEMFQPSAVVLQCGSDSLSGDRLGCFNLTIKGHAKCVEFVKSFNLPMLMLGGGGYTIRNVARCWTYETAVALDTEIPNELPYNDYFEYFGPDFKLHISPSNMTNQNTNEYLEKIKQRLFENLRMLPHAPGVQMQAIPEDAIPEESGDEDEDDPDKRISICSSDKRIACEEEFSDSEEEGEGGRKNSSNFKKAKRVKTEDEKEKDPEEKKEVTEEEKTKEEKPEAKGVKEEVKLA

| Compound | Histone acetylation activities (Histone-3) [1] | IC50 [2] [nM] | GI50 (Colo205 cells) [nM] |
| --- | --- | --- | --- |
| O=C(/C=C/c1ccn2c(CN3CCCC3)c(-c3ccccc3)nc2c1)NO [Compound 60, N-Hydroxy-3-(2-phenyl-3-pyrrolidin-1-ylmethyl-imidazo[1,2-a]pyridin-7-yl)-acrylamide] | active | 84 | 480 |
| CCCCNCc1c(C(C)(C)C)nc2cc(/C=C/C(=O)NO)ccn12 [Compound 49, 3-(2-tert-Butyl-3-butylaminomethyl-imidazo[1,2-a]pyridin-7-yl)-N-hydroxy-acrylamide] | active | 160 | 590 |
| CC(C)(C)NCc1c(-c2ccc(F)cc2)nc2cc(/C=C/C(=O)NO)ccn12 [Compound 64, 3-[3-(tert-Butylamino-methyl)-2-(4-fluoro-phenyl)-imidazo[1,2-a]pyridin-7-yl]-N-hydroxy-acrylamide] | active | 51 | 270 |
| CC(C)(C)NCc1c(-c2ccccc2)nc2cc(/C=C/C(=O)NO)ccn12 [Compound 45, 3-[3-(tert-Butylamino-methyl)-2-phenyl-imidazo[1,2-a]pyridin-7-yl]-N-hydroxy-acrylamide] | active | 45 | 260 |
| CCCCNCc1c(-c2ccccc2)nc2cc(/C=C/C(=O)NO)ccn12 [Compound 39, 3-(3-Butylaminomethyl-2-phenyl-imidazo[1,2-a]pyridin-7-yl)-N-hydroxy-acrylamide] | active | 160 | 440 |
| CCCN(C)Cc1c(-c2ccccc2)nc2cc(C=CC(=O)NO)ccn12 [Compound 40, N-Hydroxy-3-{3-[(methyl-propyl-amino)-methyl]-2-phenyl-imidazo[1,2-a]pyridin-7-yl}-acrylamide] | active | 240 | 790 |
| CCCCNCc1c(-c2ccc(F)cc2)nc2cc(/C=C/C(=O)NO)ccn12 [Compound 63, 3-[3-Butylaminomethyl-2-(4-fluoro-phenyl)-imidazo[1,2-a]pyridin-7-yl]-N-hydroxy-acrylamide] | active | 63 | 540 |
